Melting point and IC50 data for 27 molecules are collected here from patent US7960408B2, “Quinolinyl and benzothiazolyl modulators” (Amgen Inc., priority 2000, dated 2011).

Each structure is given as a SMILES string.

Tested on in one series: not given
Assay: not given
Conditions: not given
The melting point is the temperature of the solid-liquid transition. `O=C(O)c1cccc2cc(Oc3c(Cl)cc(NS(=O)(=O)c4ccc(Cl)cc4Cl)cc3Cl)cnc12` [Compound 48, 3-[2,6-Dichloro-4-(2,4-dichloro-benzenesulfonylamino)-phenoxy]-quinoline-8-carboxylic acid] yielded a melting point of 263 to 266 °C.

In turn, `COc1ccc2nc(Oc3c(Cl)cc(NS(=O)(=O)c4ccc(C(F)(F)F)cc4Cl)cc3Cl)sc2c1` [Compound 106, 2-Chloro-N-[3,5-dichloro-4-(6-methoxybenzothiazol-2-yloxy)-phenyl]-4-trifluoromethyl-benzenesulfonamide] returned a melting point of 164 to 165 °C.

In turn, `O=S(=O)(Nc1cc(Cl)c(Oc2nc3ccc(Cl)cc3s2)c(Cl)c1)c1ccc(Cl)cc1Cl` [Compound 104, 2,4-Dichloro-N-[3,5-dichloro-4-(6-chloro-benzothiazol-2-yloxy)-phenyl]benzenesulfonamide] yielded a melting point of 73 to 75 °C.

Turning to `O=S(=O)(Nc1cc(Cl)c(Oc2nc3ccc(Cl)cc3s2)c(Cl)c1)c1ccc(C(F)(F)F)cc1Cl` [Compound 103, 2-Chloro-N-[3,5-dichloro-4-(6-chloro-benzothiazol-2-yloxy)-phenyl]-4-trifluoromethyl-benzenesulfonamide], the melting point was in the range of 82 to 84 °C.

`O=C(O)c1ccc2ncc(Oc3c(Cl)cc(NS(=O)(=O)c4ccc(Cl)cc4Cl)cc3Cl)cc2c1` [Compound 47, 3-[2,6-Dichloro-4-(2,4-dichloro-benzenesulfonylamino)-phenoxy]-quinoline-6-carboxylic acid] returned a melting point of 228 to 232 °C.

Another series addresses T1, PPARγ (Homo sapiens, UniProt P37231).
T1 construct: made in house
T1 sequence (P37231 1-505): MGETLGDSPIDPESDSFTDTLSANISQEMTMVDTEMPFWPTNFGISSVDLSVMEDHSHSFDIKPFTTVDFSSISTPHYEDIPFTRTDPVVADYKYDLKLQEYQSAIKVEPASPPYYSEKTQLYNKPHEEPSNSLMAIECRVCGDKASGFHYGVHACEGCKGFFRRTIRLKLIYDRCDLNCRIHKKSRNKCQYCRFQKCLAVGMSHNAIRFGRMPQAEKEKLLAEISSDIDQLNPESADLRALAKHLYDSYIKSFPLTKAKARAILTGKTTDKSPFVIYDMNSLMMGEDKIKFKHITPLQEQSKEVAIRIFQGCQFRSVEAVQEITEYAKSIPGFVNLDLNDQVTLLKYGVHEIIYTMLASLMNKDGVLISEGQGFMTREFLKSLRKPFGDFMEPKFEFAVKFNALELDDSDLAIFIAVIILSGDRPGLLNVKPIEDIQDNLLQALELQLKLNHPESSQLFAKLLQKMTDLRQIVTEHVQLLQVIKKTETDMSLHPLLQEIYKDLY
The experiment in a line: PPARγ ligand binding assay utilizing [3H]-BRL 49653 as the radioligand. The note with it: concentration required to reduce by 50% the specific binding of [3H]-BRL 49653. The source says: The compounds of the present invention can be evaluated for modulation of the PPARγ receptor using assays such as those described in Jiang, et al., Nature 391:82-86 (1998), Ricote, et al., Nature 391:79-82 (1998) and Lehmann, et al., J. Biol. Chem. 270(12): 12953-12956 (1995). Alternatively, the compounds can be evaluated for their ability to displace radiolabeled BRL 49653 from a PPARγ-GST fusion protein as follows:
PPARγ-GST fusion protein (prepared according to standard procedures), [^3H]—BRL 49653 having 50 Ci/mmol specific activity, Polyfiltronics Unifilter 350 filtration plate and glutathione-Sepharose® beads (from Pharmacia: washed twice with 10× binding buffer in which BSA and DTI can be left out).
Binding buffer (10 mM Tris-HCl, pH 8.0, 50 mM KCI, 10 mM DTT, 0.02% BSA and 0.01% NP-40) is added in 80-μL amounts to the wells of the filtration plate. The test compound is then added in 10 μL of DMSO. The PPARγ-GST fusion protein and radiolabeled BRL compound are premixed in binding buffer containing 10 mM DTT and added in 10-μL amounts to the wells of the plate to provide final concentrations of 1 μg/well of PPARγ-GST fusion protein and 10 nM [^3H]—BRL 49653 compound. The plate is incubated for 15 min. Glutathione-agarose bead is added in 50 μL of binding buffer, and the plate is vigorously shaken for one hour. The plate is washed four times with 200 μL/well of binding buffer (without BSA and DTT). The bottom of the plate is sealed and 200 μL/well of scintillation cocktail is added. The top of the plate is then sealed and the radioactivity is determined.
IC50 values are defined as the concentration of test compounds required to reduce by 50% the specific binding of [^3H]—BRL 49653 and are represented by (+) <30 μM; (++) <10 μM; (+++) <1 μM.
The IC50 is the concentration that inhibits the measured activity by half. Read a high IC50 as weaker potency. Take `O=C(O)c1cccc2cc(Oc3c(Cl)cc(NS(=O)(=O)c4ccc(Cl)cc4Cl)cc3Cl)cnc12` [Compound 48, 3-[2,6-Dichloro-4-(2,4-dichloro-benzenesulfonylamino)-phenoxy]-quinoline-8-carboxylic acid]: the 50% inhibitory concentration (IC50) was less than 1000 nM.

Turning to `COc1ccc2nc(Oc3c(Cl)cc(NS(=O)(=O)c4ccc(C(F)(F)F)cc4Cl)cc3Cl)sc2c1` [Compound 106, 2-Chloro-N-[3,5-dichloro-4-(6-methoxybenzothiazol-2-yloxy)-phenyl]-4-trifluoromethyl-benzenesulfonamide], the IC50 was less than 1000 nM.

The molecule `O=S(=O)(Nc1cc(Cl)c(Oc2nc3ccc(Cl)cc3s2)c(Cl)c1)c1ccc(Cl)cc1Cl` [Compound 104, 2,4-Dichloro-N-[3,5-dichloro-4-(6-chloro-benzothiazol-2-yloxy)-phenyl]benzenesulfonamide] gave a half-inhibitory concentration (IC50) of 1000 to 10000 nM.

`O=S(=O)(Nc1cc(Cl)c(Oc2nc3ccc(Cl)cc3s2)c(Cl)c1)c1ccc(C(F)(F)F)cc1Cl` [Compound 103, 2-Chloro-N-[3,5-dichloro-4-(6-chloro-benzothiazol-2-yloxy)-phenyl]-4-trifluoromethyl-benzenesulfonamide] displayed a half-maximal inhibitory concentration (IC50) of less than 1000 nM.

For `Cc1cccc2sc(Oc3cc(Cl)cc(NS(=O)(=O)c4ccc(C(F)(F)F)cc4Cl)c3)nc12` [Compound 293, 2-Chloro-N-[3-chloro-5-(4-methyl-benzothiazol-2-yloxy)-phenyl]-4-trifluoromethyl-benzenesulfonamide], the IC50 was less than 1000 nM.

For the molecule `O=S(=O)(Nc1cc(Cl)c(Sc2cnc3ccccc3c2)c(Cl)c1)c1ccc(C(F)(F)F)cc1Cl` [Compound 4.3], the concentration for half-maximal inhibition (IC50) was less than 1000 nM.

On to `CC(C)(C)c1ccc(S(=O)(=O)Nc2cc(Cl)cc(Oc3nc4cc(Cl)ccc4s3)c2)cc1` [Compound 501, 4-tert-Butyl-N-[3-chloro-5-(5-chloro-benzothiazole-2-yloxy)]-benzenesulfonamide], for which the half-maximal inhibitory concentration (IC50) is greater than 30000 nM.

Consider `O=[N+]([O-])c1ccc2nc(Oc3c(Cl)cc(NS(=O)(=O)c4ccc(C(F)(F)F)cc4Cl)cc3Cl)sc2c1` [Compound 438, 2-Chloro-N-[3,5-dichloro-4-(6-nitro-benzothiazol-2-yloxy)-phenyl]-4-trifluoromethyl-benzenesulfonamide], for which the IC50 is less than 1000 nM.

`N#Cc1ccc2sc(Oc3cc(Cl)cc(NS(=O)(=O)c4ccc(C(F)(F)F)cc4Cl)c3)nc2c1` [Compound 286, 2-Chloro-N-[3-chloro-5-(5-cyano-benzothiazol-2-yloxy)-phenyl]-4-trifluoromethyl-benzenesulfonamide] showed a half-inhibitory concentration (IC50) of 1000 to 10000 nM.

`Cc1cc(S(=O)(=O)Nc2cc(Cl)cc(Oc3nc4cc(C#N)ccc4s3)c2)c(Cl)cc1Cl` [Compound 288, 2,4-Dichloro-N-[3-chloro-5-(5-cyano-benzothiazol-2-yloxy)-phenyl]-5-methyl-benzenesulfonamide] had an IC50 of less than 1000 nM.

As for `COc1cccc2sc(Oc3c(Cl)cc(NS(=O)(=O)c4cc(C)c(Cl)cc4Cl)cc3Cl)nc12` [Compound 429, 2,4-Dichloro-N-[3,5-dichloro-4-(4-methoxy-benzothiazol-2-yloxy)-phenyl]-5-methyl-benzenesulfonamide], the concentration for half-maximal inhibition (IC50) was less than 1000 nM.

On to `Cc1cc(S(=O)(=O)Nc2cc(Cl)cc(Cc3nc4cc(Cl)ccc4s3)c2)c(Cl)cc1Cl` [Compound 333, 2,4-Dichloro-N-[3-chloro-5-(5-chloro-benzothiazol-2-ylmethyl)-phenyl]-5-methyl-benzenesulfonamide], for which the IC50 was less than 1000 nM.

Molecule `COc1cccc2sc(Oc3c(Cl)cc(NS(=O)(=O)c4ccc(Cl)cc4Cl)cc3Cl)nc12` [Compound 428, 2,4-Dichloro-N-[3,5-dichloro-4-(4-methoxy-benzothiazol-2-yloxy)-phenyl]-benzenesulfonamide] came in with an IC50 of less than 1000 nM.

For `Cc1ccc2nc(Oc3cc(Cl)cc(NS(=O)(=O)c4ccc(C(F)(F)F)cc4Cl)c3)sc2c1` [Compound 299, 2-Chloro-N-[3-chloro-5-(6-methyl-benzothiazol-2-yloxy)-phenyl]-4-trifluoromethyl-benzenesulfonamide], the half-inhibitory concentration (IC50) was less than 1000 nM.

`O=[N+]([O-])c1ccc2sc(Oc3c(Cl)cc(NS(=O)(=O)c4ccc(C(F)(F)F)cc4Cl)cc3Cl)nc2c1` [Compound 455, 2-Chloro-N-[3,5-dichloro-4-(5-nitro-benzothiazol-2-yloxy)phenyl]-4-trifluoromethyl-benzenesulfonamide] returned a half-inhibitory concentration (IC50) of 1000 to 10000 nM.

The molecule `O=S(=O)(Nc1cc(Cl)c(Oc2nc3c(Cl)cccc3s2)c(Cl)c1)c1ccc(Cl)cc1Cl` [Compound 425, 2,4-Dichloro-N-[3,5-dichloro-4-(4-chloro-benzothiazol-2-yloxy)-phenyl]-benzenesulfonamide] gave an IC50 of 1000 to 10000 nM.

The molecule `O=S(=O)(Nc1cc(Cl)c(Sc2cnc3ccccc3c2)c(Cl)c1)c1ccccc1` [Compound 4.2] gave an IC50 of less than 1000 nM.

Molecule `CS(=O)(=O)Nc1ccc2nc(Oc3ccc(NS(=O)(=O)c4ccc(C(F)(F)F)cc4Cl)cc3Cl)sc2c1` [Compound 444, 2-Chloro-N-[3-chloro-4-(6-methanesulfonylamino-benzothiazol-2-yloxy)-phenyl]-4-trifluoromethyl-benzenesulfonamide] gave an IC50 of less than 1000 nM.

In the case of `O=C(O)c1ccc2ncc(Oc3c(Cl)cc(NS(=O)(=O)c4ccc(Cl)cc4Cl)cc3Cl)cc2c1` [Compound 47, 3-[2,6-Dichloro-4-(2,4-dichloro-benzenesulfonylamino)-phenoxy]-quinoline-6-carboxylic acid], the IC50 was less than 1000 nM.

Regarding `O=S(=O)(Nc1cc(Cl)cc(Cc2nc3cc(Cl)ccc3s2)c1)c1ccc(C(F)(F)F)cc1Cl` [Compound 331, 2-Chloro-N-[3-chloro-5-(5-chloro-benzothiazol-2-ylmethyl)-phenyl]-4-trifluoromethyl-benzenesulfonamide], the half-maximal inhibitory concentration (IC50) was less than 1000 nM.

For the molecule `CS(=O)(=O)Nc1ccc2sc(Oc3c(Cl)cc(NS(=O)(=O)c4ccc(C(F)(F)F)cc4Cl)cc3Cl)nc2c1` [Compound 457, 2-Chloro-N-[3,5-dichloro-4-(5-methanesulfonylamino-benzothiazol-2-yloxy)-phenyl]-4-trifluoromethyl-benzenesulfonamide], the IC50 was less than 1000 nM.

In turn, `Cc1ccc2nc(Nc3c(Cl)cc(NS(=O)(=O)c4ccc(C(F)(F)F)cc4Cl)cc3Cl)sc2c1` [Compound 86] showed a concentration for half-maximal inhibition (IC50) of less than 1000 nM.

The molecule `COc1ccc2nc(Oc3cc(Cl)cc(NS(=O)(=O)c4ccc(Cl)cc4Cl)c3)sc2c1` [Compound 308, 2,4-Dichloro-N-[3-chloro-5-(6-methoxy-benzothiazol-2-yloxy)-phenyl]-benzenesulfonamide] yielded an IC50 of less than 1000 nM.

Molecule `O=S(=O)(Nc1cc(Cl)cc(Oc2nc3c(Cl)cccc3s2)c1)c1ccc(Cl)cc1Cl` [Compound 291, 2,4-Dichloro-N-[3-chloro-5-(4-chloro-benzothiazol-2-yloxy)-phenyl]-benzenesulfonamide] gave a 50% inhibitory concentration (IC50) of 10000 to 30000 nM.

Regarding `O=S(=O)(Nc1cc(Oc2nc3cc(Cl)ccc3s2)cc(Oc2nc3cc(Cl)ccc3s2)c1)c1ccc(C(F)(F)F)cc1Cl` [Compound 322, N-[3,5-Bis-(5-chloro-benzothiazol-2-yloxy)-phenyl]-2-chloro-4-trifluoromethyl-benzenesulfonamide], the half-maximal inhibitory concentration (IC50) was 1000 to 10000 nM.

`CC(=O)c1ccc(S(=O)(=O)Nc2cc(Cl)c(Oc3nc4ccc(Cl)cc4s3)c(Cl)c2)cc1` [Compound 436, 4-Acetyl-N-[3,5-dichloro-4-(6-chloro-benzothiazol-2-yloxy)-phenyl]-benzenesulfonamide] had a half-maximal inhibitory concentration (IC50) of 1000 to 10000 nM.

Molecule `COc1ccc(OC)c(S(=O)(=O)Nc2cc(Cl)cc(Oc3nc4cc(Cl)ccc4s3)c2)c1` [Compound 502, N-[3-Chloro-5-(5-chloro-benzothiazole-2-yloxy)-phenyl]-2,5-dimethoxybenzenesulfonamide] came in with an IC50 greater than 30000 nM.
